Read-outs that look alike come from different tables or passages of the source. Where a SMILES comes first, the peptide text is derived from it. Where no end group is shown, it is not given here. [ ]: non-standard residue; d: D form.
How the values were obtained:
[1] = tested on: ZR-75-1 breast tumor xenografts
Procedure: FIGS. 5A-C. […] (FIG. 5A) Four to six week-old female Balb-c nu/nu mice were implanted with 17-β-estradiol plugs. After 24 h, ZR-75-1 breast cancer cells (imbedded in matrigel) were injected subcutaneously in the flank. When tumors were ˜150 mm3, the mice were paired matched into groups and injected intraperitoneally with PBS (vehicle control; closed squares), 50 mg/kg MUC1/AQA peptide (control peptide; open squares) or 10 mg/kg MUC1/CQC peptide (closed triangles) daily for 21 d. Another group was treated with 50 mg/kg MUC1/CQC peptide daily (⇑) for 6 d (open triangles). Mice were weighed twice weekly and tumor measurements were performed every 4 d. (FIGS. 5B and 5C). On day 24 (asterisk), tumors harvested from the control group and the group treated with 50 mg/kg/d×6d were stained with H&E (FIG. 5B) and with an antibody against MUC1 (FIG. 5C).
(FIG. 6A) Mice were injected with ZR-75-1 cells as described in the legend to FIG. 5A. When tumors were ˜275 mm^3, the mice were paired matched into groups and injected intraperitoneally with PBS (vehicle control; open squares) or 30 mg/kg MUC1/CQC peptide (closed squares) daily for 21 days (solid horizontal bar). […] The treated mice were monitored until day 52 when tumors were harvested for H&E staining (FIG. 6B).
Balb-c nu/nu female mice (Charles River Laboratories, Wilmington, Mass.), 4-6 weeks old weighing 18-22 grams, were implanted subcutaneously with 17-β-estradiol plugs (0.72 mg; Innovative Research, Sarasota, Fla.) using a trocar gun. After 24 h, 1×10^7 ZR-75-1 cells imbedded in Matri-Gel (BD Biosciences) were injected subcutaneously in the flank. When tumors were detectable at ˜150 mm^3 (Cohort 1) or 275 mm^3 (Cohort 2), the mice were pair matched into treatment and control groups. Each group contained 5 mice, each of which was ear tagged and followed throughout the study. Initial dosing was administered at the time of pair matching (day 1). Phosphate-buffered saline (vehicle), MUC1/CQC peptide and MUC1/AQA peptide were administered daily by intraperitoneal injection. Mice were weighed twice weekly, and tumor measurements were performed using calipers every 4 d. Tumor volume (V) was calculated using the formula V=W2×L/2, where W and L are the smaller and larger diameters, respectively. At sacrifice, the mice were perfused with saline and then phosphate-buffered formalin by cardiac administration. Tumors were excised, immersion fixed for 4 h, dehydrated through a graded series of ethanols, and processed for routine paraffin embedding. Tumors were evaluated by H&E staining and for immunoperoxidase staining with anti-MUC1 as described (Kufe, 1984).
To determine if administration of the MUC1/CQC peptide is associated with effects on body weight, five female nude (nu/nu) mice were injected intraperitoneally (IP) once each day at a dose of 50 mg/kg. […] To assess anti-tumor activity, ZR-75-1 cells (1×10^7) were implanted subcutaneously into the flanks of nude mice. After 12 d, mice bearing tumors of approximately 150 mm^3 were treated with the MUC1/CQC peptide at doses of 10 and 50 mg/kg/d. As controls, mice were treated with vehicle alone or with the MUC1/AQA peptide. […] To assess in part the basis for the activity, tumors harvested from control and treated mice were examined by histopathology. […] Sections of the tumors were also stained with an antibody against MUC1.
Studies were also performed on larger tumors (˜275 mm^3) (FIG. 6A).

MUC1-C in ZR-75-1 cells = biological target: T1, MUC1-C in ZR-75-1 cells (Homo sapiens, UniProt P15941); assay: Immunoblot of whole cell and nuclear lysates, ZR-75-1; assay type: cell-based; details: 5 μM peptide for 3 d; for decreases in nuclear MUC1-C levels: nuclear lysates; for cellular MUC1-C levels: whole cell lysates
T1 construct: translated as a single polypeptide and cleaved into N- and C-terminal subunits in the endoplasmic reticulum; endogenous in cells; host or cells: ZR-75-1 and MCF-7 human breast cancer cells
T1 sequence (P15941 1098-1255 limits assumed): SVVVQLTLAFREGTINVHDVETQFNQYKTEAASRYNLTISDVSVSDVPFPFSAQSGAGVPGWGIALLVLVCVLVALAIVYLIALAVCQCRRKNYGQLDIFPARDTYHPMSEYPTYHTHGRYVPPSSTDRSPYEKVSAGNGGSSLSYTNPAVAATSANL
Procedure: (§1) FIGS. 2A-C. MUC1/CQC peptide blocks nuclear localization of MUC1-C. (FIG. 2A) ZR-75-1 cells were incubated with 5 μM FITC-labeled MUC1/CQC peptide for the indicated times and then analyzed by flow cytometry. The mean fluorescence index (MFI) is included in each of the panels. (FIGS. 2B-C) ZR-75-1 (FIG. 2B) and MCF-7 (FIG. 2C) cells were incubated in the presence of 5 μM MUC1/CQC or MUC1/AQA peptide for 3 d. Whole cell lysates (WCL) (left panels) and nuclear lysates (right panels) were immunoblotted with the indicated antibodies.
(§2) Whole cell and nuclear lysates were prepared as described (Leng et al., 2007). Soluble proteins were subjected to immunoprecipitation with anti-Flag (Sigma, St. Louis, Mo.). Immunoprecitates and soluble proteins were analyzed by immunoblotting with anti-His (Cell Signaling Technology, Danvers, Mass.), anti-GFP (Millipore, Danvers, Mass.), anti-Flag, anti-MUC1-C (Abl; NeoMarkers, Fremont, Calif.), anti-lamin B (EMD, La Jolla, Calif.) or anti-β-actin (Sigma). Reactivity was detected with horseradish peroxidase-conjugated second antibodies and chemiluminescence.
Human ZR-75-1 and MCF-7 breast cancer cells overexpress endogenous MUC1, and thus represent potential models for evaluating effects of the MUC1/CQC peptide (Ramasamy et al., 2007). To assess uptake, the ZR-75-1 cells were incubated with 5 μM FITC-MUC1/CQC peptide (FIG. 2A). […] Oligomerization of MUC1-C is necessary for its nuclear import (Leng et al., 2007). Treatment of ZR-75-1 cells with the MUC1/CQC or the MUC1/AQA peptide had no effect on cellular MUC1-C levels (FIG. 2B). […] These findings indicate that the MUC1/CQC peptide blocks MUC1-C oligomerization and thereby targeting of MUC1-C to the nucleus.

MUC1-C in MCF-7 cells = biological target: T2, MUC1-C in MCF-7 cells (Homo sapiens, UniProt P15941); assay: Immunoblot of nuclear lysates, MCF-7; assay type: cell-based; details: MCF-7 nuclear lysates, 5 μM peptide for 3 d
T2 construct: translated as a single polypeptide and cleaved into N- and C-terminal subunits in the endoplasmic reticulum; endogenous in cells; host or cells: ZR-75-1 and MCF-7 human breast cancer cells
T2 sequence (P15941 1098-1255 limits assumed): T1 sequence (P15941 1098-1255 limits assumed)
Procedure: as §1, §2
Human ZR-75-1 and MCF-7 breast cancer cells overexpress endogenous MUC1, and thus represent potential models for evaluating effects of the MUC1/CQC peptide (Ramasamy et al., 2007). To assess uptake, the ZR-75-1 cells were incubated with 5 μM FITC-MUC1/CQC peptide (FIG. 2A). […]

[2] = 30 mg/kg/d×21 d, tumors harvested on day 52

Row | Compound | tumor growth ([1]; 10 mg/kg/d×21 d IP, tumors ~150 mm3, compared with MUC1/AQA 50 mg/kg/d) | MUC1 expression in tumors [1, 2] | tumor histopathology (H&E) [1, 2] | tumor growth ([1]; 30 mg/kg/d×21 d IP, larger tumors ~275 mm3) | tumor growth during treatment ([1]; 50 mg/kg/d IP, initial 7 d, tumors ~150 mm3) | tumor growth ([1]; 10 and 30 mg/kg/d for 21 d) | tumor histopathology (H&E) ([1]; 10 and 50 mg/kg, compared with vehicle or MUC1/AQA) | MUC1 expression in tumors (anti-MUC1 staining) ([1]; tumors ~150 mm3 cohort, compared with control and MUC1/AQA) | decreases in nuclear MUC1-C levels (MUC1-C in ZR-75-1 cells) | cellular MUC1-C levels (MUC1-C in ZR-75-1 cells) | nuclear MUC1-C levels (MUC1-C in MCF-7 cells) | anti-tumor activity ([1]; 50 mg/kg/d for 21 d)
1 | CC[C@H](C)[C@H](NC(=O)[C@H](CC(=O)O)NC(=O)[C@H](CC(C)C)NC(=O)[C@H](CCC(N)=O)NC(=O)CNC(=O)[C@H](Cc1ccc(O)cc1)NC(=O)[C@H](CC(N)=O)NC(=O)[C@H](CCCCN)NC(=O)[C@H](CCCNC(=N)N)NC(=O)[C@H](CCCNC(=N)N)NC(=O)[C@H](CS)NC(=O)[C@H](CCC(N)=O)NC(=O)[C@H](CS)NC(=O)[C@@H](CCCNC(=N)N)NC(=O)[C@@H](CCCNC(=N)N)NC(=O)[C@@H](CCCNC(=N)N)NC(=O)[C@@H](CCCNC(=N)N)NC(=O)[C@@H](CCCNC(=N)N)NC(=O)[C@@H](CCCNC(=N)N)NC(=O)[C@@H](CCCNC(=N)N)NC(=O)[C@@H](CCCNC(=N)N)NC(=O)[C@H](N)CCCNC(=N)N)C(=O)N[C@@H](Cc1ccccc1)C(=O)N1CCC[C@H]1C(=O)O [MUC1/CQC] (H-[dR][dR][dR][dR][dR][dR][dR][dR][dR]CQCRRKNYGQLDIFP-OH; N-terminus and C-terminus assumed) | slowed growth | down-regulation of MUC1 expression | extensive areas of necrosis | arrest of tumor growth | blocked growth | effective in abrogating tumor growth | markedly necrotic | marked down-regulation of MUC1 expression | decreases in nuclear MUC1-C levels | no effect | down-regulation of nuclear MUC1-C levels | 
2 | MUC1/AQA: control peptide in which the CQC motif was altered to AQA, with poly-dArg transduction domain; SEQ ID NO: 60 ([dR][dR][dR][dR][dR][dR][dR][dR][dR]AQARRKNYGQLDIFP) [reference compound] |  |  |  |  |  |  |  |  | not | no effect |  | no anti-tumor activity

From patent US9546201B2, “MUC-1 cytoplasmic domain peptides as inhibitors of cancer” (DANA-FARBER CANCER INSTITUTE, INC., priority 2008, dated 2017)
